Values of other authors as cited in patent US10413588B2, “Probiotic function of human intelectin” (Wisconsin Alumni Research Foundation, priority 2015, dated 2019).

Biological target: hIntL-1 (Homo sapiens, UniProt Q8WWA0)
Conditions: reported by Tsuji et al., 2001; read-out: apparent KD / apparent affinity for hIntL-1

hIntL-1, sequence (Q8WWA0 19-298): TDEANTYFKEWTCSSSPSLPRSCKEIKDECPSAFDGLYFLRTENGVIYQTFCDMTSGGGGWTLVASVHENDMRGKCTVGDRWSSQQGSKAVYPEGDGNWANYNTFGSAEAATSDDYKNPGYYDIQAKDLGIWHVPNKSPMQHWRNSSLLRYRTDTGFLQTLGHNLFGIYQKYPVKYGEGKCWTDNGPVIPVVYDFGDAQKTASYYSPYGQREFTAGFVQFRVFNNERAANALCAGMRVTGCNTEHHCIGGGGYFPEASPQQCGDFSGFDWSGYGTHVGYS

Compound: O=C[C@H](O)[C@H](O)[C@H](O)CO [D-ribose]
- Kd: 5 mM
